The NIST ThermoML archive (doi:10.1007/s10765-014-1617-1)
Numbers after ± are expanded uncertainties.

Key:
[1] = 101.33 kPa, Liquid; for thermal conductivity: Parallel plate method; for mass density: Vibrating tube method
[2] = refractive index (Na D-line) (dimensionless); conditions: 101.33 kPa, Liquid, Standard Abbe refractometry

CCCCCCCCCC[n+]1ccn(C)c1.N#C[C-](C#N)C#N [3-decyl-1-methylimidazolium tricyanomethanide]
Conditions | mass density, [1] [kg/m3] | refractive index, [2] | thermal conductivity, [1] [W/m/K]
283.15 K | 992.5 ± 0.83 | 1.5008 ± 0.0007 | 0.168 ± 0.0057
288.15 K | 989.38 ± 0.82 | – | –
293.15 K | 986.25 ± 0.82 | 1.4981 ± 0.0007 | 0.1694 ± 0.0057
298.15 K | 983.11 ± 0.82 | – | –
303.15 K | 979.98 ± 0.81 | 1.495 ± 0.0007 | 0.1674 ± 0.0057
308.15 K | 976.85 ± 0.81 | – | –
313.15 K | 973.73 ± 0.81 | 1.4918 ± 0.0007 | 0.1676 ± 0.0057
318.15 K | 970.63 ± 0.8 | – | –
323.15 K | 967.53 ± 0.8 | – | 0.1673 ± 0.0057
328.15 K | 964.44 ± 0.8 | – | –
333.15 K | 961.37 ± 0.79 | – | 0.1646 ± 0.0056
338.15 K | 958.31 ± 0.79 | – | –
343.15 K | 955.24 ± 0.79 | – | 0.162 ± 0.0055
348.15 K | 952.2 ± 0.78 | – | –
353.15 K | 949.17 ± 0.78 | – | 0.1593 ± 0.0054
358.15 K | 946.15 ± 0.77 | – | –
363.15 K | 943.13 ± 0.77 | – | –

CCCCCCCCCCn1cc[n+](C)c1.N#C[B-](C#N)(C#N)C#N [1-decyl-3-methyl-1H-imidazolium tetracyanoborate]
Conditions | mass density, [1] [kg/m3] | refractive index, [2] | thermal conductivity, [1] [W/m/K]
283.15 K | 972.81 ± 0.29 | 1.4612 ± 0.0006 | 0.1665 ± 0.0056
288.15 K | 969.36 ± 0.29 | – | –
293.15 K | 965.94 ± 0.28 | 1.4584 ± 0.0006 | 0.1673 ± 0.0056
298.15 K | 962.51 ± 0.28 | – | –
303.15 K | 959.09 ± 0.28 | 1.4552 ± 0.0006 | 0.1667 ± 0.0056
308.15 K | 955.68 ± 0.28 | – | –
313.15 K | 952.29 ± 0.28 | 1.4522 ± 0.0006 | 0.1646 ± 0.0055
318.15 K | 948.91 ± 0.28 | – | –
323.15 K | 945.54 ± 0.28 | – | 0.164 ± 0.0055
328.15 K | 942.19 ± 0.28 | – | –
333.15 K | 938.85 ± 0.28 | – | 0.1613 ± 0.0054
338.15 K | 935.53 ± 0.28 | – | –
343.15 K | 932.22 ± 0.28 | – | 0.16 ± 0.0054
348.15 K | 928.94 ± 0.28 | – | –
353.15 K | 925.65 ± 0.28 | – | 0.1586 ± 0.0053
358.15 K | 922.39 ± 0.28 | – | –
363.15 K | 919.14 ± 0.28 | – | –

CCCCCCCCn1cc[n+](C)c1.N#C[B-](C#N)(C#N)C#N [1-methyl-3-octylimidazolium tetracyanoborate]
Conditions | mass density, [1] [kg/m3] | refractive index, [2] | thermal conductivity, [1] [W/m/K]
283.15 K | 985.65 ± 0.29 | 1.4603 ± 0.0006 | 0.1703 ± 0.0057
288.15 K | 982.14 ± 0.29 | – | –
293.15 K | 978.62 ± 0.29 | 1.457 ± 0.0006 | 0.1694 ± 0.0057
298.15 K | 975.1 ± 0.29 | – | –
303.15 K | 971.6 ± 0.29 | 1.4541 ± 0.0006 | 0.1682 ± 0.0056
308.15 K | 968.12 ± 0.29 | – | –
313.15 K | 964.65 ± 0.28 | 1.4509 ± 0.0006 | 0.1644 ± 0.0055
318.15 K | 961.2 ± 0.28 | – | –
323.15 K | 957.76 ± 0.28 | – | 0.1586 ± 0.0053
328.15 K | 954.34 ± 0.28 | – | –
333.15 K | 950.94 ± 0.28 | – | 0.1573 ± 0.0053
338.15 K | 947.55 ± 0.28 | – | –
343.15 K | 944.17 ± 0.28 | – | 0.1543 ± 0.0052
348.15 K | 940.82 ± 0.28 | – | –
353.15 K | 937.45 ± 0.28 | – | 0.1513 ± 0.0051
358.15 K | 934.15 ± 0.28 | – | –
363.15 K | 930.84 ± 0.28 | – | –

CCCCn1cc[n+](C)c1.N#C[B-](C#N)(C#N)C#N [1-butyl-3-methyl-1H-imidazolium tetracyanoborate]
Conditions | mass density, [1] [kg/m3] | refractive index, [2] | thermal conductivity, [1] [W/m/K]
283.15 K | 1021.17 ± 0.3 | 1.4561 ± 0.0006 | 0.178 ± 0.006
288.15 K | 1017.37 ± 0.3 | – | –
293.15 K | 1013.59 ± 0.3 | 1.4533 ± 0.0006 | 0.1791 ± 0.006
298.15 K | 1009.83 ± 0.3 | – | –
303.15 K | 1006.09 ± 0.29 | 1.45 ± 0.0006 | 0.1756 ± 0.0059
308.15 K | 1002.37 ± 0.29 | – | –
313.15 K | 998.67 ± 0.29 | 1.4473 ± 0.0006 | 0.1737 ± 0.0058
318.15 K | 995 ± 0.29 | – | –
323.15 K | 991.34 ± 0.29 | – | 0.1732 ± 0.0058
328.15 K | 987.71 ± 0.29 | – | –
333.15 K | 984.09 ± 0.29 | – | 0.1693 ± 0.0057
338.15 K | 980.5 ± 0.29 | – | –
343.15 K | 976.92 ± 0.29 | – | 0.1664 ± 0.0056
348.15 K | 973.37 ± 0.29 | – | –
353.15 K | 969.82 ± 0.29 | – | 0.1632 ± 0.0055
358.15 K | 966.3 ± 0.29 | – | –
363.15 K | 962.8 ± 0.28 | – | –

CCCCCC[n+]1ccn(C)c1.N#C[C-](C#N)C#N [3-hexyl-1-methylimidazolium tricyanomethanide]
Conditions | mass density, [1] [kg/m3] | refractive index, [2] | thermal conductivity, [1] [W/m/K]
283.15 K | 1030.55 ± 0.9 | 1.5084 ± 0.0007 | 0.1817 ± 0.0061
288.15 K | 1027.22 ± 0.89 | – | –
293.15 K | 1023.92 ± 0.89 | 1.5055 ± 0.0007 | 0.1815 ± 0.0061
298.15 K | 1020.62 ± 0.88 | – | –
303.15 K | 1017.35 ± 0.87 | 1.5026 ± 0.0007 | 0.1831 ± 0.0062
308.15 K | 1014.08 ± 0.87 | – | –
313.15 K | 1010.83 ± 0.86 | 1.4994 ± 0.0007 | 0.1817 ± 0.0061
318.15 K | 1007.58 ± 0.85 | – | –
323.15 K | 1004.35 ± 0.85 | – | 0.181 ± 0.0061
328.15 K | 1001.14 ± 0.84 | – | –
333.15 K | 997.93 ± 0.84 | – | 0.1792 ± 0.006
338.15 K | 994.74 ± 0.83 | – | –
343.15 K | 991.57 ± 0.83 | – | 0.1774 ± 0.006
348.15 K | 988.4 ± 0.82 | – | –
353.15 K | 985.24 ± 0.82 | – | 0.1762 ± 0.0059
358.15 K | 982.11 ± 0.82 | – | –
363.15 K | 978.98 ± 0.81 | – | –

CCCCCCCCn1cc[n+](C)c1.N#CC(=C=[N-])C#N [1-methyl-3-octylimidazolium tricyanomethanide]
Conditions | mass density, [1] [kg/m3] | refractive index, [2] | thermal conductivity, [1] [W/m/K]
283.15 K | 1010.18 ± 0.86 | 1.5048 ± 0.0007 | 0.1717 ± 0.0058
288.15 K | 1006.97 ± 0.85 | – | –
293.15 K | 1003.75 ± 0.85 | 1.5021 ± 0.0007 | 0.1689 ± 0.0057
298.15 K | 1000.54 ± 0.84 | – | –
303.15 K | 997.34 ± 0.83 | 1.4993 ± 0.0007 | 0.1675 ± 0.0057
308.15 K | 994.15 ± 0.83 | – | –
313.15 K | 990.97 ± 0.83 | 1.4964 ± 0.0007 | 0.1685 ± 0.0057
318.15 K | 987.8 ± 0.82 | – | –
323.15 K | 984.65 ± 0.82 | – | 0.1678 ± 0.0057
328.15 K | 981.5 ± 0.82 | – | –
333.15 K | 978.37 ± 0.81 | – | 0.1655 ± 0.0056
338.15 K | 975.25 ± 0.81 | – | –
343.15 K | 972.14 ± 0.8 | – | 0.1642 ± 0.0056
348.15 K | 969.05 ± 0.8 | – | –
353.15 K | 965.97 ± 0.8 | – | 0.1639 ± 0.0056
358.15 K | 962.89 ± 0.79 | – | –
363.15 K | 959.82 ± 0.79 | – | –

CCn1cc[n+](C)c1.N#C[C-](C#N)C#N [1-ethyl-3-methyl-1H-imidazolium tricyanomethanide]
Conditions | mass density, [1] [kg/m3] | refractive index, [2] | thermal conductivity, [1] [W/m/K]
283.15 K | 1091.96 ± 1 | 1.516 ± 0.0007 | 0.1966 ± 0.0066
288.15 K | 1088.37 ± 1 | – | –
293.15 K | 1084.8 ± 1 | 1.5131 ± 0.0007 | 0.1958 ± 0.0066
298.15 K | 1081.25 ± 1 | – | –
303.15 K | 1077.71 ± 1 | 1.5101 ± 0.0007 | 0.1955 ± 0.0066
308.15 K | 1074.19 ± 0.99 | – | –
313.15 K | 1070.69 ± 0.98 | 1.5071 ± 0.0007 | 0.1928 ± 0.0065
318.15 K | 1067.21 ± 0.98 | – | –
323.15 K | 1063.74 ± 0.97 | – | 0.1917 ± 0.0064
328.15 K | 1060.29 ± 0.96 | – | –
333.15 K | 1056.86 ± 0.95 | – | 0.1896 ± 0.0064
338.15 K | 1053.44 ± 0.95 | – | –
343.15 K | 1050.04 ± 0.94 | – | 0.1883 ± 0.0063
348.15 K | 1046.66 ± 0.93 | – | –
353.15 K | 1043.28 ± 0.93 | – | 0.1874 ± 0.0063
358.15 K | 1039.93 ± 0.92 | – | –
363.15 K | 1036.58 ± 0.91 | – | –

CCCCCCn1cc[n+](C)c1.N#C[B-](C#N)(C#N)C#N [1-hexyl-3-methylimidazolium tetracyanoborate]
[1]
Conditions | thermal conductivity [W/m/K]
283.15 K | 0.1762 ± 0.0059
293.15 K | 0.1752 ± 0.0059
303.15 K | 0.1741 ± 0.0058
313.15 K | 0.1714 ± 0.0057
323.15 K | 0.1722 ± 0.0058
333.15 K | 0.1697 ± 0.0057
343.15 K | 0.1677 ± 0.0056
353.15 K | 0.1656 ± 0.0056
